In the assay the test system is Escherichia coli. The experiment in a line: Survival (viability) of bacteria collected using surfactant-containing solution. The assay is classed as cell-based. The note with it: 1% surfactant solution, 20° C.; then capture with 10% cationic graft polymer; one hundredth of suspension cultured 37° C. 18 hours; Control 1 >5000. The method, then:
Escherichia coli precipitated on a separating agent in a blood collection tube is collected while being alive using a non-ionic surfactant-containing solution.
The produced Escherichia coli was added to a physiological saline solution in an amount of 2×10^8 cell/mL, and the resulting mixture was used as a sample.
To a blood collection tube, 3 mL of a bacterial solution in which Escherichia coli was dispersed in a physiological saline solution was added, and was centrifuged at 3000 rpm for five minutes. Thereafter, the supernatant was removed. Subsequently, 0.5 mL of a 1% surfactant solution was added to the blood collection tube, and a bacterial cell precipitated on a surface of a separating agent was dispersed.
The bacterial cell suspension was allowed to stand at 20° C. for 30 minutes and three hours. Thereafter, 100 μL of a 10% cationic graft polymer and 100 μL of a reaction solution were mixed and allowed to react for one minute. Thereafter, the resulting product was centrifuged for 30 seconds by a tabletop small centrifugal machine to obtain a precipitation pellet. The supernatant was removed, and the resulting precipitation pellet was completely dispersed with 500 μL of a dispersion solution to obtain a suspension. One hundredth of the suspension was cultured at 37° C. for 18 hours using a LB bacteria culture agar medium, and the number of living bacteria was confirmed by the number of colonies.
As a control, a physiological saline solution was used in place of the surfactant solution (Control 1).

In the case of `C[C@H](CCC(=O)NCCC[N+](C)(C)CCCS(=O)(=O)[O-])[C@H]1CC[C@H]2[C@@H]3[C@H](O)C[C@@H]4C[C@H](O)CC[C@]4(C)[C@H]3C[C@H](O)[C@]12C` [CHAPS], the “the number of colonies, allowed to stand for 30 minutes” value came to 84 and the “the number of colonies, allowed to stand for 3 hours” value is on record as 61.

For the compound sucrose laurate, the “the number of colonies, allowed to stand for 30 minutes” value is listed as 4000 and the “the number of colonies, allowed to stand for 3 hours” value stood at 3200.
